Test results as given in patent US4426371A, “Novel N-hydroxyalkylated dicarboxylic acid bis(3,5-dicarbamoyl-2,4,6-triiodoanilides), as X-ray contrast media” (Schering, Aktiengesellschaft, priority 1980, dated 1984).

Tests used:
Rat = experiment: Compatibility: LD50 (Rat) upon i.v. injection; type: in vivo; details: rate 2 ml/min, aqueous solution 300 mg I/ml
Method: (§1) Osmotic Pressure, Viscosity, and Compatibility of Nonionic
(§2) Contrast Media of Different Chemical Structure as an Aqueous
(§3) Solution (Concentration: 300 mg I/ml)
Pressure Viscosity (g Iodine/kg Body

[1] = for angiography and myelography; background; cited from earlier work
[2] = Osmotic pressure of aqueous contrast media solution; type: physicochemical; details: 300 mg I/ml
Description: (§4) It was surprising that, per this invention, a comparatively minor chemical modification of the class of compounds described in DOS No. 2,628,517 (U.S. Pat. No. 4,239,747) would lead to a significant improvement in compatibility and to an increase in solubility. This can be seen from Table I wherein the compound A of this invention (malonic acid bis[3,5-bis(1,3-dihydroxyisopropylcarbamoyl)-2,4,6-triiodo-N-2-hydroxyethylanilide]) is compared with respect to osmotic pressure, viscosity, and compatibility with oxalic acid bis[3,5-bis(2,3-dihydroxypropyl-N-methylcarbamoyl)-2,4,6-triiodo-anilide] (B), as well as with iopamidol (5-[α-hydroxypropionyl-amino]-2,4,6-triiodoisopthalic acid bis[1,3-dihydroxyisopropyl-amide]) and metrizamide [2-(3-acetamido-2,4,6-triiodo-5-[N-methylacetamido]benzamido)-2-deoxy-D-glucose)].
as §1, §2, §3

[3] = Viscosity of aqueous contrast media solution; type: physicochemical; details: 300 mg I/ml
Description: as §4, §1, §2, §3

| Structure (SMILES) | LD50 (Rat) upon i.v. Injection (Rat) | concentrated, radiopaque solutions not hypertonic to blood or other body fluid [1] | Osmotic Pressure 37° C. [2] | Viscosity 37° C. [3] |
| --- | --- | --- | --- | --- |
| CC(=O)Nc1c(I)c(C(=O)N[C@H]2C(O)O[C@H](CO)[C@@H](O)[C@@H]2O)c(I)c(N(C)C(C)=O)c1I (some centres unmarked) [Metrizamide] | 12 g Iodine/kg Body Weight | it has not been possible to prepare solutions sufficiently concentrated and radiopaque | 12.3 atm | 6.2 cp |
| CN(CC(O)CO)C(=O)c1c(I)c(NC(=O)C(=O)Nc2c(I)c(C(=O)N(C)CC(O)CO)c(I)c(C(=O)N(C)CC(O)CO)c2I)c(I)c(C(=O)N(C)CC(O)CO)c1I (centres unmarked) [B, oxalic acid bis[3,5-bis(2,3-dihydroxypropyl-N-methylcarbamoyl)-2,4,6-triiodo-anilide]] | 13 g Iodine/kg Body Weight |  | 4.3 atm | 13.7 cp |
| O=C(NC(CO)CO)c1c(I)c(C(=O)NC(CO)CO)c(I)c(N(CCO)C(=O)CC(=O)N(CCO)c2c(I)c(C(=O)NC(CO)CO)c(I)c(C(=O)NC(CO)CO)c2I)c1I [A, malonic acid bis[3,5-bis(1,3-dihydroxyisopropylcarbamoyl)-2,4,6-triiodo-N-2-hydroxyethylanilide]] | more than 30 g Iodine/kg Body Weight |  | 7.2 atm | 6.8 cp |
| C[C@H](O)C(=O)Nc1c(I)c(C(=O)NC(CO)CO)c(I)c(C(=O)NC(CO)CO)c1I [Iopamidol, 5-[α-hydroxypropionyl-amino]-2,4,6-triiodoisopthalic acid bis[1,3-dihydroxyisopropyl-amide]] | 12 g Iodine/kg Body Weight | it has not been possible to prepare solutions sufficiently concentrated and radiopaque | 15.7 atm | 4.7 cp |
